{"source": "patent US20210156844A1", "about": "“TMEM16A Modulation for Diagnostic or Therapeutic Use in Pulmonary Hypertension (PH)” (Bayer Aktiengesellschaft, priority 2017, published 2021)", "key": {"human PASMC": {"tested_on": "human PASMC", "test": "PASMC proliferation in vitro, [3H]-thymidine incorporation", "type": "cell-based", "conditions": "benzbromarone 30 μM; PDGF-BB 10 ng/ml; human donor PASMC", "description": "Human PASMC were seeded on 96-well plates. Cells were serum-starved for 12 hours, then underwent a 30 min pre-treatment with benzbromarone (30 μM) or vehicle. After the pre-treatment, serum-free SMC Medium containing PDGF-BB (10 ng/ml, Sigma) and benzbromarone was applied. The proliferation was determined by [^3H]-thymidine incorporation (BIOTREND Chemikalien GmbH, Cologne, Germany) as an index of DNA synthesis, and detected with a scintillation counter (Wallac 1450 MicroBeta TriLux Liquid Scintillation Counter & Luminometer, PerkinElmer, Waltham Mass., USA). Each independent experiment was performed in five replicates using PASMC isolated from six different donor lungs.\nIn experiments using TMEM16A silencing, cells were first seeded on 6-well plates and transfected with TMEM16A siRNA or control non-silencing RNA as described above. Cells were re-seeded into 96-well plates 24 hours after transfection, starved for 12 hours, then the induction and measurement of proliferation was performed as detailed above."}, "[1]": {"tested_on": "monocrotaline treated rats", "test": "Monocrotaline treated rats, chronic treatment with slow-release pellets", "type": "in vivo, rat", "description": "Male Sprague-Dawley rats (body weight: approx. 250 g, Charles River) received a single subcutaneous injection of monocrotaline (MCT, 60 mg/kg, n=16) or vehicle (control group, n=8). Since significant RVSP increase and PA muscularization had been detected as early as 12 days after the injection of MCT58, two weeks after monocrotaline treatment rats were randomly ordered into two groups. Subcutaneous slow-release pellets (Innovative Research of America) that contained either benzbromarone (MCT+BBR, n=8) or vehicle (MCT+Veh, n=8) were implanted. Four weeks after monocrotaline treatment all rats were subjected to echocardiography and in vivo hemodynamic measurements, thereafter they were sacrificed for organ collection.\nEchocardiographic measurements were performed using a Vevo 770 High Resolution Imaging System with a 30 MHz RMV-707B scan head (VisualSonics, Toronto, Canada) as previously reported (Egemnazarov, B, et al., J. Am. Soc. Echocardiogr. (2015) 28, 828-843). Briefly, animals were mounted on a heated pad and kept under anaesthesia with isoflurane 0.8-1.2%. Chest hair was depilated and a layer of sonographic coupling gel was applied to the thorax. RV internal diameter (RVID) and free wall thickness (RVFW) from the left parasternal long axis view were measured in M-mode and 2-D modalities. RV outflow tract was visualized from the parasternal short axis view at the level of the aortic valve. From this view, pulse wave (PW) Doppler flow recordings of the pulmonary artery were obtained with the sample volume positioned at the tip of the pulmonary valve leaflets. Here, peak velocity, acceleration time (PAAT), and velocity-time integral (VTI) were measured. For every parameter, measurements were done for 4-5 cardiac cycles and results were averaged. Cardiac output was calculated as CO (mL/min)=(7.85×[RV outflow tract]2×pulmonary valve velocity-time integral×heart rate)/1,000. Cardiac index (CI) was obtained by normalizing cardiac output to body weight.\nIn rats, in vivo hemodynamic measurements were conducted as described above for the mice, with the exception that for the right ventricular and the systolic blood pressures, 2 F Millar Catheters (SPR-513 and SPR-320, respectively) were used.\nAt the end of the hemodynamic measurements, animals were exsanguinated and the heart and lungs were isolated. The right ventricle (RV) was dissected from the left ventricle+septum (LV+S) and both of them were weighed. Right ventricular hypertrophy was assessed by calculating the Fulton index, defined as RV weight/(LV+S weight).\nParaffin-embedded mouse and rat lung tissues were cut to 2 μm thin sections. Double immunohistochemical staining and quantification of the non-muscularized and muscularized arteries were made as previously described (Crnkovic, S, et al., Respir. Physiol. Neurobiol. (2011) 179, 342-345). Immunostained slides were scanned with an Olympus BX61VS microscope using the OlyVIA software (Olympus Austria GmbH, Vienna, Austria). Vessel remodeling in lung sections was quantified using semi-automated image analysis software (Visiopharm, Hoersholm, Denmark). Throughout the analysis, all samples were identified with number codes to blind the operator for the experimental group. The percentage of non-muscularized and muscularized pulmonary arteries, relative to the total number of pulmonary arteries, was calculated.\nSerial sections from the same lungs were used to determine cell proliferation in the PA wall, as described by Zabini et al. (Zabini, D. et al., J. Cell. Mol. Med. (2015) 19, 1151-1161). Lung sections were labeled using a primary antibody against the proliferation marker PCNA (sc-7907, Santa Cruz). Immunostained slides were scanned with an Olympus BX61VS microscope equipped with the OlyVIA software (Olympus Austria GmbH, Vienna, Austria). Negative controls were performed with the omission of the primary antibody."}, "[2]": {"tested_on": "patients with severe IPAH", "test": "Hemodynamic effect of a single oral dose of benzbromarone in IPAH patients", "type": "in vivo, human", "conditions": "200 mg orally", "description": "All patients provided a written informed consent to participate in the study. Examinations were performed by the same experienced team. For the right heart catheterizations, a 7F quadriple-lumen, balloon-tipped, flow-directed Swan-Ganz catheter (Baxter, Deerfield, Ill.) was introduced using the transjugular approach. Hemodynamic measurements included systolic, diastolic and mean pulmonary arterial pressure, pulmonary arterial wedge pressure, right atrial pressure, and cardiac output measured by the thermodilution technique and calculated using an analog computer system. Pulmonary vascular resistance was derived from the difference of mean pulmonary arterial pressure and pulmonary arterial wedge pressure divided by cardiac output. Cardiac index was determined as the ratio of cardiac output to body surface area. All measurements were performed in the supine position, pressure values were continuously recorded and averaged over several respiratory cycles during spontaneous breathing. […] Partial pressure of oxygen and oxygen saturation of arterialized ear lobe capillary blood and pulmonary arterial blood were determined with an ABL 800 Flex (Radiometer; Copenhagen, Denmark) blood gas analyzer. Systemic blood pressure was measured by a sphygmomanometer."}, "[3]": {"conditions": "compared to the MCT+Veh group, week 4"}, "[4]": {"conditions": "slow-release pellet from two weeks after MCT, echocardiography at week 4"}, "[5]": {"conditions": "after 120 min, 10 patients, no placebo group"}}}
{"smiles": "CCc1oc2ccccc2c1C(=O)c1cc(Br)c(O)c(Br)c1", "note": "[benzbromarone, (2-Ethyl-3-benzofuranyl)-(3,5-dibrom-4-hydroxyphenyl)ketone]", "values": [{"measurement": "PDGF-BB induced PASMC proliferation", "setting": "human PASMC", "result": "decrease"}, {"measurement": "PCNA positive nuclei in the medial layer of the PA", "setting": "[1]; MCT treated rats, lung sections (not shown)", "result": "reduced number"}, {"measurement": "number of fully muscularized arteries", "setting": "[1]; MCT+BBR vs MCT+Veh", "result": "markedly reduced"}, {"measurement": "number of non-muscularized arteries", "setting": "[1]; MCT+BBR vs MCT+Veh", "result": "increased"}, {"measurement": "RV hypertrophy (Fulton-index)", "setting": "[1]; [3]", "result": "significantly decreased"}, {"measurement": "RVSP", "setting": "[1]; [3]", "result": "significantly decreased"}, {"measurement": "MCT-induced decrease in cardiac index (CI)", "setting": "[1]; [4]", "result": "completely reversed"}, {"measurement": "MCT-induced decrease in pulmonary artery acceleration time (PAAT)", "setting": "[1]; [4]", "result": "completely reversed"}, {"measurement": "MCT-induced increase in right ventricular free wall thickness (RVFW Thickness)", "setting": "[1]; [4]", "result": "completely reversed"}, {"measurement": "further changes in the pulmonary or systemic hemodynamics", "setting": "[2]", "result": "no further changes"}, {"measurement": "PVR", "setting": "[2]; [5]", "result": "slight increase"}, {"measurement": "mPAP", "setting": "[2]; [5]", "result": "slight increase"}, {"measurement": "clinical adverse effects", "setting": "[2]; throughout the study", "result": "No clinical adverse effects"}]}
